Each structure is given as a SMILES string. A value given as a limit tells only on which side of the number the result lay.

In general, Emax refers to the maximal effect, on the per cent scale that the assay sets.

Type in all cases: cell-based
The target in one test is T1, M1 muscarinic receptor (Homo sapiens, UniProt P11229).
T1 construct: expressed in transfected cells; host or cells: CHO (M1-CHO)
T1 sequence (P11229 1-460): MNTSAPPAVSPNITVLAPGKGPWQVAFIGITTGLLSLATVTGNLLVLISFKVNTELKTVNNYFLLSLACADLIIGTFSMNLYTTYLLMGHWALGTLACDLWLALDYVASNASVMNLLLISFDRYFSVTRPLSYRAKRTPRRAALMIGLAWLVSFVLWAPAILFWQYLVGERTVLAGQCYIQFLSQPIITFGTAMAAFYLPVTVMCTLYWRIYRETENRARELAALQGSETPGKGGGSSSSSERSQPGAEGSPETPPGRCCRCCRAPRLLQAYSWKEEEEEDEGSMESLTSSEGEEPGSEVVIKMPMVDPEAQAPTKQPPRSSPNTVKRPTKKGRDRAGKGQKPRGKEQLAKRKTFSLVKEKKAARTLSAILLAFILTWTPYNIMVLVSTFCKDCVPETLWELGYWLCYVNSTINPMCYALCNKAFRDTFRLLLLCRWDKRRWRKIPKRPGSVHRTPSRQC
Briefly: Functional mobilization of intracellular calcium (FLIPR) in CHO cells expressing M1. To be noted: for M1 Activity: CHO cells expressing M1, FLIPR calcium assay; for Emax: CHO, 100% efficacy = maximum response obtained with the Carbachol control. A digest of the protocol:
(§1)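 Calcium flux is read on FLIPR over 60 sec at 488/540 nm in muscarinic-receptor CHO lines. Antagonist mode adds carbachol at EC80 after 15 min compound preincubation or with simultaneous co-application. Agonist mode adds compound alone. Cells carry Fluo-3 or Calcium 3 dye in probenecid-containing pH 7.4 buffer, 0.5% DMSO final.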
In general terms: Calcium assays in cells follow changes in intracellular calcium, usually with a dye or a luminescent sensor.

Another test concerns the target T2, M2 muscarinic receptor (Homo sapiens, UniProt P08172).
T2 construct: expressed in transfected cells; host or cells: CHO (M2-CHO)
T2 sequence (P08172 1-466): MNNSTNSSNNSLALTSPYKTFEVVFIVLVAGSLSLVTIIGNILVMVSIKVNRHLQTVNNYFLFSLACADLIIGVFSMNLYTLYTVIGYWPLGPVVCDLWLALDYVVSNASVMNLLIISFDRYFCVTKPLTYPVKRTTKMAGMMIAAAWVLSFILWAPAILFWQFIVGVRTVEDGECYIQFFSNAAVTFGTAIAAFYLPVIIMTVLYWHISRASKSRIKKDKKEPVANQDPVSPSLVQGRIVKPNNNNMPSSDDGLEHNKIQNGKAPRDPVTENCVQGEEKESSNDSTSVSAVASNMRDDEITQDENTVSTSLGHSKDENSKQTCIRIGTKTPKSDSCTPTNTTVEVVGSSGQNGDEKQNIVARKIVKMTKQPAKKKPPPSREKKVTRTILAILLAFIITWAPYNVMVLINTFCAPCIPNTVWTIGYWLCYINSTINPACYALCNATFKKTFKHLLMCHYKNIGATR
Nature of the test: Functional mobilization of intracellular calcium (FLIPR) in CHO cells expressing M2. To be noted: for M2 Activity: CHO cells expressing M2, FLIPR calcium assay; for Emax: CHO, 100% efficacy = maximum response obtained with the Carbachol control. The essentials:
as §1

Another test addresses T3, M3 muscarinic receptor (Homo sapiens, UniProt P20309).
T3 construct: expressed in transfected cells; host or cells: CHO (M3-CHO)
Nature of the test: Functional mobilization of intracellular calcium (FLIPR) in CHO cells expressing M3. To be noted: for M3 Activity: CHO cells expressing M3, FLIPR calcium assay; for Emax: CHO, 100% efficacy = maximum response obtained with the Carbachol control. The essentials:
as §1

In another test the target is T4, M4 muscarinic receptor (Homo sapiens, UniProt P08173).
T4 construct: expressed in transfected cells; host or cells: CHO (M4-CHO)
T4 sequence (P08173 1-479): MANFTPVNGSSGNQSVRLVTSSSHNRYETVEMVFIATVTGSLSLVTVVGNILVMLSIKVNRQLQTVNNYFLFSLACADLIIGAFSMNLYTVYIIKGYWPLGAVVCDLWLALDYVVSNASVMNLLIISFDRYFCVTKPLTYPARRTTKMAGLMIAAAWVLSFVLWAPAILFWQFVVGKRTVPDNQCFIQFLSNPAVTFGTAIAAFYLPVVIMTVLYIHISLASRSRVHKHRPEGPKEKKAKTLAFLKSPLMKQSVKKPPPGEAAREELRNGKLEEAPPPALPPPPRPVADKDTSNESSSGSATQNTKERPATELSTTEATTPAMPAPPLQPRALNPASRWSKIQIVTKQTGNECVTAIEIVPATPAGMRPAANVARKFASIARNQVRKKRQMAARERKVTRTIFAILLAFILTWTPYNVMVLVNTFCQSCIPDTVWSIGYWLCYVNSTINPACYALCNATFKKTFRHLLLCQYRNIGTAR
Nature of the test: Functional mobilization of intracellular calcium (FLIPR) in CHO cells expressing M4. To be noted: for M4 Activity: CHO cells expressing M4, FLIPR calcium assay; for Emax: CHO, 100% efficacy = maximum response obtained with the Carbachol control. The essentials:
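Read-out: FLIPR fluorescence (ex 488, em 540 nm) over 60 s. Recombinant CHO lines are dye-loaded (Fluo-3 AM or Calcium 3) with 1 mM probenecid. For antagonist mode, compound is pre-incubated 15 min, or co-applied, then carbachol is added at 3× EC80 per subtype.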

T3 sequence (P20309 whole entry): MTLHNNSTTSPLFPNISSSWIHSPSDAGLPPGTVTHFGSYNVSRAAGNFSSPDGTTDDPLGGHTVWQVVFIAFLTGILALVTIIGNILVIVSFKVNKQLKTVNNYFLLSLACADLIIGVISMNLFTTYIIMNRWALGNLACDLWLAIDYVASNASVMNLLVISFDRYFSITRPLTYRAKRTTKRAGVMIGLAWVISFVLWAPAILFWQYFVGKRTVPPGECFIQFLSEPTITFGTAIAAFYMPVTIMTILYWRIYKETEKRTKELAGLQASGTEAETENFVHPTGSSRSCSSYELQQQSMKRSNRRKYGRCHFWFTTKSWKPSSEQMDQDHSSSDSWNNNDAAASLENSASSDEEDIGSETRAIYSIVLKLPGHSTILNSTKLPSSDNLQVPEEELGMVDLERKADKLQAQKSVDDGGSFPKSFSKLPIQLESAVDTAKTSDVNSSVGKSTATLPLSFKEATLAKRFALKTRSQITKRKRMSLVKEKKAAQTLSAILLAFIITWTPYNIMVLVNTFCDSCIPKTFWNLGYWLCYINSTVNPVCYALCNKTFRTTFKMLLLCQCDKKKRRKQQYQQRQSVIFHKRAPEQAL

For `CC(C)CCN1CCC2(CC1)C[C@H](NC(=O)C1CC1)c1ccccc12` [compound 247], on M1 muscarinic receptor, the “M1 Activity” value was “+ (activity was measured to be greater than 5.0 μM)” and the Emax lay in the range of 25 to 100%. For the same molecule, on M2 muscarinic receptor, the “M2 Activity” value is on record as “+ (activity was measured to be greater than 5.0 μM)” and the Emax is under 25%. On M3 muscarinic receptor, the “M3 Activity” value is “+ (activity was measured to be greater than 5.0 μM)” and the Emax is under 25%. For the same molecule, at M4 muscarinic receptor, the “M4 Activity” value is “+ (activity was measured to be greater than 5.0 μM)” and the Emax was under 25%.

With `CC/C=C\CCCCCCN1CCC2(CC1)C[C@H](NC(C)=O)c1ccccc12` [compound 248], on M1 muscarinic receptor, the “M1 Activity” value is given as “++ (activity was measured to be from 2.0 μM to 5.0 μM)” and the Emax fell in the range of 25 to 100%. Further, at M2 muscarinic receptor, the “M2 Activity” value is “+ (activity was measured to be greater than 5.0 μM)” and the Emax is under 25%. Also, at M3 muscarinic receptor, the “M3 Activity” value is reported as “+ (activity was measured to be greater than 5.0 μM)” and the maximal effect (Emax) was under 25%. For the same molecule, on M4 muscarinic receptor, the “M4 Activity” value was “+ (activity was measured to be greater than 5.0 μM)” and the Emax lay within 25 to 100%.

`CC(C)(C)CCN1CCC2(CC1)CC(C(=O)O)c1ccccc12` (stereo not shown) [compound 250]: at M1 muscarinic receptor, the “M1 Activity” value was “+ (activity was measured to be greater than 5.0 μM)” and the Emax fell in the range of 25 to 100%. At M2 muscarinic receptor, the “M2 Activity” value is “+ (activity was measured to be greater than 5.0 μM)” and the Emax is under 25%. At M3 muscarinic receptor, the “M3 Activity” value is reported as “+ (activity was measured to be greater than 5.0 μM)” and the Emax was under 25%. On M4 muscarinic receptor, the “M4 Activity” value is listed as “+ (activity was measured to be greater than 5.0 μM)” and the Emax lay within 25 to 100%.

Turning to `CC(C)(C)CCN1CCC2(CC1)C[C@H](NC(=O)N1CCCC1)c1ccccc12` [compound 251], on M1 muscarinic receptor, the “M1 Activity” value is “+ (activity was measured to be greater than 5.0 μM)” and the Emax was under 25%. Also, at M2 muscarinic receptor, the “M2 Activity” value is “+ (activity was measured to be greater than 5.0 μM)” and the Emax was under 25%. Further, on M3 muscarinic receptor, the “M3 Activity” value is listed as “+ (activity was measured to be greater than 5.0 μM)” and the Emax is under 25%. In addition, at M4 muscarinic receptor, the “M4 Activity” value was “+ (activity was measured to be greater than 5.0 μM)” and the Emax is under 25%.

`Cc1ccc2c(c1)C(=O)CC21CCN(C(=O)OC(C)(C)C)CC1` [compound 252]: at M1 muscarinic receptor, the “M1 Activity” value is “+ (activity was measured to be greater than 5.0 μM)” and the Emax was under 25%. Also, at M2 muscarinic receptor, the “M2 Activity” value is “+ (activity was measured to be greater than 5.0 μM)” and the Emax was under 25%. Further, on M3 muscarinic receptor, the “M3 Activity” value was “+ (activity was measured to be greater than 5.0 μM)” and the Emax is under 25%. At M4 muscarinic receptor, the “M4 Activity” value is “+ (activity was measured to be greater than 5.0 μM)” and the maximum response (Emax) was under 25%.

Turning to `CC(=O)N[C@H]1CC2(CCN(CCC(C)(C)C)CC2)c2ccc(C)cc21` [compound 253], at M1 muscarinic receptor, the “M1 Activity” value is on record as “+ (activity was measured to be greater than 5.0 μM)” and the Emax was under 25%. On M2 muscarinic receptor, the “M2 Activity” value is listed as “+ (activity was measured to be greater than 5.0 μM)” and the Emax is under 25%. Also, on M3 muscarinic receptor, the “M3 Activity” value is on record as “+ (activity was measured to be greater than 5.0 μM)” and the Emax was under 25%. At M4 muscarinic receptor, the “M4 Activity” value is “+ (activity was measured to be greater than 5.0 μM)” and the Emax was in the range of 25 to 100%.

For `CC(C)(C)OC(=O)N1CCC2(CC1)C[C@H](NC(=O)c1ccccc1)c1ccccc12` [compound 255], at M1 muscarinic receptor, the “M1 Activity” value was “+ (activity was measured to be greater than 5.0 μM)” and the Emax was under 25%. Moreover, at M2 muscarinic receptor, the “M2 Activity” value is listed as “+ (activity was measured to be greater than 5.0 μM)” and the Emax was under 25%. Besides, on M3 muscarinic receptor, the “M3 Activity” value is reported as “+ (activity was measured to be greater than 5.0 μM)” and the Emax is under 25%. Also, at M4 muscarinic receptor, the “M4 Activity” value was “+ (activity was measured to be greater than 5.0 μM)” and the Emax is under 25%.

Consider `CC(=O)N[C@H]1CC2(CCN(CC(=O)O)CC2)c2ccccc21` [compound 256], for which, at M1 muscarinic receptor, the “M1 Activity” value is “+ (activity was measured to be greater than 5.0 μM)” and the Emax was under 25%. Further, at M2 muscarinic receptor, the “M2 Activity” value was “+ (activity was measured to be greater than 5.0 μM)” and the Emax was under 25%. At M3 muscarinic receptor, the “M3 Activity” value is reported as “+ (activity was measured to be greater than 5.0 μM)” and the Emax is under 25%. Further, on M4 muscarinic receptor, the “M4 Activity” value is on record as “+ (activity was measured to be greater than 5.0 μM)” and the Emax is under 25%.

As to `COC(=O)CCCCCN1CCC2(CC1)C[C@H](NC(C)=O)c1ccccc12` [compound 257], at M1 muscarinic receptor, the “M1 Activity” value is on record as “+++ (activity was measured to be less than 2.0 μM)” and the Emax is over 100%. In addition, on M2 muscarinic receptor, the “M2 Activity” value is reported as “+++ (activity was measured to be less than 2.0 μM)” and the Emax was in the range of 25 to 100%. At M3 muscarinic receptor, the “M3 Activity” value is listed as “+ (activity was measured to be greater than 5.0 μM)” and the Emax lay in the range of 25 to 100%. Further, at M4 muscarinic receptor, the “M4 Activity” value is listed as “+++ (activity was measured to be less than 2.0 μM)” and the Emax fell in the range of 25 to 100%.

Regarding `CC(=O)N[C@H]1CC2(CCN(CC(=O)N(CC#N)C(C)C)CC2)c2ccccc21` [compound 258], on M1 muscarinic receptor, the “M1 Activity” value is “+ (activity was measured to be greater than 5.0 μM)” and the Emax is under 25%. At M2 muscarinic receptor, the “M2 Activity” value is on record as “+ (activity was measured to be greater than 5.0 μM)” and the Emax was under 25%. At M3 muscarinic receptor, the “M3 Activity” value is “+ (activity was measured to be greater than 5.0 μM)” and the Emax was under 25%. At M4 muscarinic receptor, the “M4 Activity” value was “+ (activity was measured to be greater than 5.0 μM)” and the Emax is under 25%.

Turning to `CC(C)CCN1CCC2(CC1)CC(C(=O)O)c1ccccc12` (stereo not shown) [compound 259], at M1 muscarinic receptor, the “M1 Activity” value is listed as “+ (activity was measured to be greater than 5.0 μM)” and the Emax fell in the range of 25 to 100%. Also, on M2 muscarinic receptor, the “M2 Activity” value is on record as “+ (activity was measured to be greater than 5.0 μM)” and the Emax was under 25%. Besides, at M3 muscarinic receptor, the “M3 Activity” value is “+ (activity was measured to be greater than 5.0 μM)” and the Emax was under 25%. Moreover, on M4 muscarinic receptor, the “M4 Activity” value was “+ (activity was measured to be greater than 5.0 μM)” and the Emax is under 25%.

For `CC(=O)NC1CCC2(CCN(C(=O)OC(C)(C)C)CC2)c2ccccc21` (stereo not shown) [compound 260], the Emax on M1 muscarinic receptor, at M2 muscarinic receptor, on M3 muscarinic receptor and on M4 muscarinic receptor was under 25% in each case.

For `CC(=O)N[C@H]1CC2(CCN(C(=O)OC(C)(C)C)CC2)c2ccc(C)cc21` [compound 261], on M1 muscarinic receptor, the “M1 Activity” value is reported as “+ (activity was measured to be greater than 5.0 μM)” and the Emax is under 25%. In addition, on M2 muscarinic receptor, the “M2 Activity” value was “+ (activity was measured to be greater than 5.0 μM)” and the Emax is under 25%. Moreover, on M3 muscarinic receptor, the “M3 Activity” value is “+ (activity was measured to be greater than 5.0 μM)” and the Emax is under 25%. On M4 muscarinic receptor, the “M4 Activity” value is reported as “+ (activity was measured to be greater than 5.0 μM)” and the Emax is under 25%.

(Values after US8003660B2, “Modulators of muscarinic receptors” (Vertex Pharmaceuticals Incorporated, priority 2006, dated 2011).)
